Test results: patent US4992369A, “Fermentation process for glycopeptide antibiotic” (Pfizer Inc., priority 1986, dated 1991)

Tested on: rumen fluid
Assay: In vitro rumen technique: propionic acid production in rumen fluid
Format: cell-based
Settings: 10 micrograms per milliliter; rumen fluid from fistulated cow, 39° C., about 16 hours
Description: The value of animal feeds has generally been determined directly by feeding the animal. British Patent Specification No. 1,197,826 details an in vitro rumen technique whereby the changes occurring in feeds brought about by microorganisms are measured more readily and with great accuracy in the evaluation of animal feeds. This technique involves the use of an apparatus in which the digestive processes of the animals are conducted and studied in vitro. The animal feeds, rumen inoculum and various growth promotants are introduced into and withdrawn from a laboratory unit under carefully controlled conditions and the changes taken place are studied critically and progressively during the consumption of the feed by the microorganisms. […] The change in propionic acid content is expressed as percent of the propionic acid content found in the control rumen fluid. Long term in vivo feeding studies are used to show a reliable correlation between propionic acid increase in the rumen fluid and improved animal performance. […]
After incubation, 5 ml. of the sample is mixed with 1 ml. of 25% metaphosphoric acid. […] Samples are then analyzed by gas-liquid chromatography by the method of D. W. Kellog, J. Dairy Science, 52, 1690, 1969. Peak heights for acetic, propionic and butyric acids are determined for samples from untreated and treated incubation flasks.

## CC[C@@H](C(=O)[C@@H](C)[C@@H](O)[C@H](C)[C@@H]1O[C@@H]([C@@H](CC)C(=O)O)CC[C@@H]1C)[C@H]1O[C@]2(C=C[C@@H](O)[C@]3(CC[C@@](C)([C@H]4CC[C@](O)(CC)[C@H](C)O4)O3)O2)[C@H](C)C[C@@H]1C [salinomycin]
  increase in the production of propionic acid over control: ~46%
